In US11718628B2, “SREBP inhibitors comprising a 6-membered central ring” (Capulus Therapeutics, LLC, priority 2018, dated 2023):
≈ marks a conversion by molar mass, not a printed value.

Columns and labels:
[1] = Kinetic solubility; format: physicochemical; conditions: pH 7.4 buffer, room temperature, 1.0% DMSO; for solubility kinetic at 24 h: aqueous buffer, kinetic from dmso stock, read-out: I: kinetic solubility class
Protocol: Kinetic Solubility Procedure: A 10 mM stock solution of a compound was prepared in DMSO, then 4 μL of the stock was added to a deep well plate containing 396 μL of pH 7.4 buffer. The sample plate was vortexed at 800 rpm for 24 h on thermomixer at room temperature. The plate was sealed well during the incubation process. The DMSO content in the sample was 1.0%. The concentration of the evaluated compound in the final incubation was 100 μM. At the end of the incubation period, the sample plate was centrifuged at 4000 rpm for 10 min and analyzed in LC-UV against a calibration curve (CC). Values <10 μg/mL=Low; 10 to 60 μg/mL=Medium; >60 μg/mL=High.

[2] = Half-life in human liver microsomes; format: in vitro ADME; conditions: NADPH, 37° C.; for half-life at 1 µM: human, liver microsomes, read-out: G: half-life human liver microsomes
Protocol: (§1) Half-life Human Microsomes: Compounds were evaluated for stability in human liver microsomes. A 10 mM stock solution of the compound being evaluated was prepared in DMSO and diluted with water:acetonitrile (1:1) to a concentration of 1 mM. A working concentration of 100 μM was prepared by further dilution with water:acetonitrile (1:1). To make the preincubation mixture, 2.5 μL of the diluted compound was combined with 75 μL of human liver microsomes at 3.33 mg/mL, and 85 μL of 100 mM potassium phosphate buffer, and this mixture was pre-incubated for 10 min at 37° C. To make the 60 minute mixture without cofactor, 32.5 μL of the preincubation mixture was combined with 17.5 μL of 100 mM potassium phosphate buffer and incubated for 60 min at 37° C. To make the 0 min sample with cofactor (NADPH), 16.25 μL of the preincubation mixture was combined with 200 μL of acetonitrile containing internal standard and 8.75 μL of cofactor (NADPH). To make the incubation mixture, 62 μL of cofactor (2.85 mM) was combined with the remaining incubation mixture, and incubated for 60 min at 37° C. To prepare the sample mixture to be evaluated, 25 μL incubation mixture was combined with 200 μL of acetonitrile containing internal standard and vortexed for 5 min at 1200 rpm, then centrifuged for 10 min at 4000 rpm. The supernatant was diluted 2 fold with water and injected on LC-MS/MS. The sample mixture was evaluated by LC-MS/MS using 10 mM ammonium acetate with 0.1% FA as the aqueous mobile phase, and methanol as the organic mobile phase.

[3] = Half-life in mouse liver microsomes; format: in vitro ADME; conditions: for half-life at 1 µM: mouse, liver microsomes, read-out: H: half-life of mouse liver microsomes
Protocol: as §1
Half-life Mouse Microsomes: Compounds were evaluated in mouse liver microsomes following a similar procedure as described above for human liver microsomes. A similar procedure could be used to evaluate compounds in rat liver microsomes.

solubility kinetic at 24 h [1] [µg/mL] | half-life at 1 µM [2] [min] | half-life at 1 µM [3] [min] | I: kinetic solubility class ([1]; 24 h) | G: half-life human liver microsomes [2] [min] | H: half-life of mouse liver microsomes [3] [min] | Structure (SMILES)
10 to 60 (≈ 23.7 to 142 µM) | 2.01 | 38.3 |  |  |  | CC(C)(C)c1cc(-c2cncc(-c3ccc(C(=O)N4CC(O)C4)cc3Cl)c2)ccn1
10 to 60 (≈ 21.5 to 129 µM) | 11.2 | 1.94 |  |  |  | CC(C)(C)c1cc(-c2cncc(-c3ccc(C(=O)N4CCC(=O)C(F)C4)cc3Cl)c2)ccn1 (stereo not drawn)
10 to 60 (≈ 21.7 to 130 µM) | 21.3 | 42.4 |  |  |  | O=C(c1ccc(-c2cncc(-c3ccnc(C4CC4)c3)c2)c(Cl)c1)N1CC2CCC(C1)C2O (stereo not drawn)
10 to 60 (≈ 21.5 to 129 µM) | 32.3 | 54.4 |  |  |  | O=C(c1ccc(-c2cncc(-c3ccnc(C4(F)CCC4)c3)c2)c(Cl)c1)N1CCC(O)CC1
10 to 60 (≈ 21.6 to 129 µM) | 3.21 | 19.5 |  |  |  | Cc1c(-c2ccnc(C(C)(C)C)c2)cncc1-c1ccc(C(=O)N2CCC(O)CC2)cc1Cl
10 to 60 (≈ 22.9 to 138 µM) | 14.4 | 38.7 |  |  |  | CC(C)(C)c1cc(-c2cncc(-c3ccc(C(=O)N4CC[C@H](O)C4)cc3Cl)c2)ccn1
< 10 | 1.78 | 1090 |  |  |  | CC(C)(C)c1cc(-c2cncc(-c3ccc(NC(=O)OC4CCNCC4)cc3Cl)c2)ccn1
10 to 60 (≈ 20.9 to 125 µM) | 53.2 | 14.4 |  |  |  | CC(C)(C)c1cc(-c2cncc(-c3ccc(NC(=O)OCCN4CCCC4)cc3Cl)c2)ccn1
10 to 60 (≈ 20.8 to 125 µM) | 16.1 | 38.5 |  |  |  | COc1ncc(-c2ccc(C(=O)N3CCC(O)CC3)cc2Cl)cc1-c1ccnc(C(C)(C)C)c1
10 to 60 (≈ 21.4 to 128 µM) | 120 | 98.5 |  |  |  | CC(C)(C)c1cc(-c2cncc(-c3ccc(C(=O)N4CCC(O)C(F)C4)cc3Cl)c2)ccn1 (stereo not drawn)
10 to 60 (≈ 20.6 to 123 µM) | 28.1 | 88.6 |  |  |  | CC(C)(C)c1cc(-c2cncc(-c3ccc(C(=O)N4CCC(O)C(F)(F)C4)cc3Cl)c2)ccn1 (stereo not drawn)
10 to 60 (≈ 21.4 to 128 µM) | 12.2 | 21.7 |  |  |  | CC(C)(C)c1cc(-c2cncc(-c3ccc(C(=O)N4CCC(F)C(O)C4)cc3Cl)c2)ccn1 (stereo not drawn)
10 to 60 (≈ 21.6 to 129 µM) | 2.02 | 8.98 |  |  |  | COC1CCCN(C(=O)c2ccc(-c3cncc(-c4ccnc(C(C)(C)C)c4)c3)c(Cl)c2)C1 (stereo not drawn) [drawing 375]
< 10 | 120 | 120 |  |  |  | CC(C)OC(=O)Nc1ccc(-c2cncc(-c3ccnc(C(C)(C)O)c3)c2)c(Cl)c1
10 to 60 (≈ 23.8 to 143 µM) | 39.2 | 87.2 |  |  |  | O=C(c1ccc(-c2cncc(-c3ccnc(C4CC4)c3)c2)c(Cl)c1)N1CC[C@H](O)C1
10 to 60 (≈ 21.6 to 129 µM) | 7.35 | 12.4 |  |  |  | CC(C)(C)c1cc(-c2cncc(-c3ccc(C(=O)N4CC(C(C)(C)O)C4)cc3Cl)c2)ccn1
< 10 | 6.5 | > 120 |  |  |  | CC(C)(CO)c1cc(-c2cncc(-c3ccc(NS(C)(=O)=O)cc3Cl)c2)ccn1
10 to 60 (≈ 20.7 to 124 µM) | 9.51 | 40.4 |  |  |  | CC(C)(C)c1cc(-c2cncc(-c3ccc(C(=O)N(CCCO)CCCO)cc3Cl)c2)ccn1
< 10 | 112 | 86.7 |  |  |  | CS(=O)(=O)Nc1ccc(-c2cncc(-c3ccnc(C4CC4)c3)c2)c(Cl)c1
< 10 | 16.3 | 40.3 |  |  |  | CC(C)(C)c1cc(-c2cccc(-c3ccc(C(=O)N4CCC(O)CC4)cc3Cl)c2F)ccn1
< 10 | 20.7 | 13.6 |  |  |  | CN(C)c1cc(-c2ccnc(C(C)(C)C)c2)cc(-c2ccc(C(=O)N3CCC(O)CC3)cc2Cl)c1
10 to 60 (≈ 22.2 to 133 µM) | 10.1 | 32 |  |  |  | CC(C)(C)c1cc(-c2cncc(-c3ccc(C(=O)N4CCC[C@@H]4CO)cc3Cl)c2)ccn1

solubility kinetic at 24 h [1] [µg/mL] | half-life at 1 µM [2] [min] | half-life at 1 µM [3] [min] | I: kinetic solubility class ([1]; 24 h) | G: half-life human liver microsomes [2] [min] | H: half-life of mouse liver microsomes [3] [min] | Structure (SMILES)
< 10 | 63.6 | 105 |  |  |  | CC(C)OC(=O)N(C)c1ccc(-c2cncc(-c3ccnc(C(C)(C)C)c3)c2)c(Cl)c1
< 10 | 120 | 81.1 |  |  |  | CC(C)OC(=O)Nc1ccc(-c2cncc(-c3ccnc(C4CC4)c3)c2)c(Cl)c1
10 to 60 (≈ 22.1 to 133 µM) | 27.1 | 36.2 |  |  |  | CC(C)(C)c1cc(-c2cncc(-c3ccc(C(=O)N4C[C@@H](O)[C@@H](O)C4)cc3Cl)c2)ccn1
10 to 60 (≈ 22.2 to 133 µM) | 61.2 | 80.1 |  |  |  | CC(C)(C)c1cc(-c2cncc(-c3ccc(C(=O)N4CCC(O)CC4)cc3Cl)c2)ccn1 [drawing 378]
< 10 | 31.3 | 120 |  |  |  | CC(C)(C)c1cc(-c2cncc(-c3ccc(NC(=O)OC4CCC(O)CC4)cc3Cl)c2)ccn1 (stereo not drawn)
10 to 60 (≈ 22.1 to 133 µM) | 541 | 2920 |  |  |  | CC(C)(O)c1cc(-c2cncc(-c3ccc(C(=O)N4CCC(O)CC4)cc3Cl)c2)ccn1 [drawing 356]
10 to 60 (≈ 20.8 to 125 µM) | 27.7 | 120 |  |  |  | CC(C)(C)c1cc(-c2cncc(-c3ccc(C(=O)N4CCC(O)C(O)CC4)cc3Cl)c2)ccn1 (stereo not drawn)
10 to 60 (≈ 22.2 to 133 µM) | 2.62 | 1860 |  |  |  | CC(C)(C)c1cc(-c2cncc(-c3cc(C(=O)N4CCC(O)CC4)ccc3Cl)c2)ccn1
< 10 | 21.5 | 87.8 |  |  |  | CC(C)OC(=O)Nc1ccc(-c2cncc(-c3ccnc(C(C)(C)CO)c3)c2)c(Cl)c1
10 to 60 (≈ 21.5 to 129 µM) | 2.98 | 9.75 |  |  |  | CC(C)(CNC(=O)c1ccc(-c2cncc(-c3ccnc(C(C)(C)C)c3)c2)c(Cl)c1)C(=O)O
< 10 | 37.4 | 104 |  |  |  | CS(=O)(=O)Nc1ccc(-c2cncc(-c3ccnc4c3OCCO4)c2)c(Cl)c1
10 to 60 (≈ 19.9 to 120 µM) | 43.7 | 32.5 |  |  |  | CC(C)(C)c1cc(-c2cncc(-c3ccc(C(=O)N4CCC(O)(O)C(F)(F)C4)cc3Cl)c2)ccn1
10 to 60 (≈ 23.6 to 142 µM) | 1.69 | 177 |  |  |  | Cc1cc(S(=O)(=O)NC(C)C)ccc1-c1cncc(-c2ccnc(C(C)(C)C)c2)c1
 |  |  | MEDIUM (10 to 60 μg/mL=Medium) | 21.4 | 56.5 | CC(C)(C)c1cc(-c2cncc(-c3ccc(C(=O)N4CCC(O)C(O)C4)cc3Cl)c2)ccn1 (stereo not drawn) [drawing 423]
10 to 60 (≈ 22.9 to 138 µM) | 6.72 | 39.8 |  |  |  | CC1(O)CN(C(=O)c2ccc(-c3cncc(-c4ccnc(C(C)(C)C)c4)c3)c(Cl)c2)C1
< 10 | 16.1 | 119 |  |  |  | CC(C)(C)c1cc(-c2cc(C#N)cc(-c3ccc(C(=O)N4CCC(O)CC4)cc3Cl)c2)ccn1
< 10 | 19 | 10.2 |  |  |  | CC(C)(C)c1cc(-c2cc(-c3ccc(C(=O)N4CCC(O)CC4)cc3Cl)cc3ncccc23)ccn1
< 10 | 90.8 | 110 |  |  |  | CC(C)(C)c1cc(-c2cccc(-c3ccc(NS(C)(=O)=O)cc3Cl)c2)ccn1
10 to 60 (≈ 22.9 to 138 µM) | 1.74 | 26.5 |  |  |  | CC(C)(C)c1cc(-c2cncc(-c3ccc(C(=O)N4CC(CO)C4)cc3Cl)c2)ccn1
10 to 60 (≈ 22.2 to 133 µM) | 12.9 | 28 |  |  |  | CC1(O)CCN(C(=O)c2ccc(-c3cncc(-c4ccnc(C(C)(C)C)c4)c3)c(Cl)c2)C1 (stereo not drawn)
10 to 60 (≈ 21.6 to 129 µM) | 76.7 | 120 |  |  |  | O=C(c1ccc(-c2cncc(-c3ccnc(C4(O)CCC4)c3)c2)c(Cl)c1)N1CCC(O)CC1

Structure (SMILES) | solubility kinetic at 24 h [1] [µg/mL] | half-life at 1 µM [2] [min] | half-life at 1 µM [3] [min] | I: kinetic solubility class ([1]; 24 h) | G: half-life human liver microsomes [2] [min] | H: half-life of mouse liver microsomes [3] [min]
CC(C)(C)c1cc(-c2cccc(-c3ccc(C(=O)N4CCC(O)CC4)cc3Cl)c2)ccn1 [drawing 377] | < 10 | 46.5 | 89.9 |  |  | 
